In BindingDB's records for PubMed 39369482 (Univ. Lille) one finds IC50 data, which are given here for seven compounds.

In this assay the target is Insulin-regulated aminopeptidase (Homo sapiens). Description: Inhibition of recombinant human IRAP using L-AMC as substrate preincubated for 30 mins followed by substrate addition and measured after 1 hr by fluorescence based assay.
By IC50 is commonly meant the concentration at which inhibition is half-maximal. Regarding `O=C1N=C(S)SC1=Cc1ccc(C(=O)O)cc1`, the IC50 stood at 40.9 µM.

In the case of `O=C(NO)c1ccc(S(=O)(=O)N2CCCCC2)s1`, the IC50 is 60.3 µM.

As to `O=C(Cc1ccc(S(=O)(=O)N2CCCCC2)s1)NO`, the IC50 stood at 16.3 µM.

For `O=C(O)c1cccc(S(=O)(=O)N2CCCC2)c1`, the IC50 was 88.1 µM.

In the case of `O=C(O)c1cccc(S(=O)(=O)N2CCCCC2)c1`, the IC50 was 14.4 µM.

Turning to `O=C(O)c1cccc(S(=O)(=O)N2CCC(F)CC2)c1`, the half-maximal inhibitory concentration (IC50) came to 15.1 µM.

Take `CN1C(=O)SC(Cc2ccc(C(=O)O)cc2)C1=O` (configuration not stated): the IC50 was found to be 13.3 µM.
